Results as given in patent US8383597B2, “G proteins in tumor growth and angiogenesis” (Cornell Research Foundation, Inc., priority 2006, dated 2013).
“Also recorded” adds a separate entry of the source. d = 2'-deoxy (DNA); r = 2'-OH (RNA)

What was measured:
tubulin [1] = assay: Western blot of tubulin protein level in MEF cells after RNA interference; type: cell-based, mouse; settings: siRNA transfected MEF cells, Western blot (FIG. 3C)
Procedure: (§1) RNA Interference: RNA interference was performed with Qiagen's 2-For-Silencing siRNA Duplexes. Cells were plated in 6-well plates the day before transfection. 2.5 μg siRNA were diluted in 100 μL buffer EC-R (Qiagen). 7.5 μL RNAiFect transfection reagent (Qiagen) were added to form complexes. After incubation for 15 minutes at room temperature, the complexes were added to the cells. Two days later, the cells were again transfected with the same amount of siRNA. Cells were assayed after three more days' incubation. The sequences for Gα13 siRNA oligonucleotides were r(GUA CGA CUU UGA AAU UAA A)dTdT (SEQ ID NO: 6) for the sense strand and r(UUU AAU UUC AAA GUC GUA C)dTdC (SEQ ID NO: 7) for the antisense strand. The sequences for the second pair of oligonucleotides used in the interference assay (data not shown) were r(GGG UGA GUC UGU AAA GUA U)dTdT (SEQ ID NO: 8) for the sense strand and r(AUA CUU UAC AGA CUC ACC C)dAdG (SEQ ID NO: 9) for the antisense strand. The control siRNA oligonucleotides were supplied by Qiagen.

Gα12 [2] = assay: Western blot of Gα12 protein level in SVEC4-10 endothelial cells after RNA interference; type: cell-based, mouse; settings: SVEC4-10 cells, Western blot (FIG. 9A)
Procedure: as §1

MEF cells [3] = assay: Chamber cell migration assay, siRNA-treated MEF cells; type: cell-based, mouse
Procedure: (§2) Chamber Cell Migration Assay: Cell migration was assayed in Boyden chambers [8.0 μm pore size polyethylene terephthalate membrane, FALCON cell culture insert (Becton-Dickinson)] (Shan et al., Proc Natl Acad Sci USA 102: 3772-3776 (2005); Yang and Huang, J Biol Chem 280: 27130-27137 (2005)). Cells were first trypsinized and counted. Then 5-10×10^4 cells in serum free medium (300 μL) were added to the upper chamber, and 500 μL of appropriate medium with 10% FBS or 20 ng/mL PDGF were added to the lower chamber. Transwells were incubated for 4-6 hours at 37° C. Cells on the inside of the transwell inserts were removed with a cotton swab, and cells on the underside of the insert were fixed and stained. Photographs of three random fields were taken, and the number of cells counted to determine the average number of cells that had transmigrated.
(§3) RNA Interference: RNA interference was performed with Qiagen's 2-For-Silencing siRNA Duplexes. Cells were plated in 6-well plates the day before transfection. 2.5 μg siRNA were diluted in 100 μL buffer EC-R (Qiagen). 7.5 μL RNAiFect transfection reagent (Qiagen) were added to form complexes. After incubation for 15 minutes at room temperature, the complexes were added to the cells. Two days later, the cells were again transfected with the same amount of siRNA. Cells were assayed after three more days' incubation. […]

Gα12 [4] = assay: Western blot of Gα12 protein level in MEF cells after RNA interference; type: cell-based, mouse; settings: siRNA transfected MEF cells, Western blot (FIG. 3C)
Procedure: as §1

tubulin [5] = assay: Western blot of tubulin protein level in SVEC4-10 endothelial cells after RNA interference; type: cell-based, mouse; settings: SVEC4-10 cells, Western blot (FIG. 9A)
Procedure: as §1

mouse Gα13 [6] = assay: Western blot of Gα13 protein level in SVEC4-10 endothelial cells after RNA interference; type: cell-based; settings: SVEC4-10 cells, Western blot (FIG. 9A)
Procedure: as §1

[7] = test system: mouse endothelial SVEC4-10 cells; assay: Chamber assay of VEGF-induced migration of SVEC4-10 endothelial cells; type: cell-based; settings: chamber assay (FIG. 9B)
Procedure: as §2, with “Then 5-10×10^4 cells in serum free medium (300 μL) were added to the upper chamber, and 500 μL of appropriate medium with 10% FBS or 20 ng/mL PDGF were added to the lower chamber.” left out
as §1, with “The sequences for the second pair of oligonucleotides used in the interference assay (data not shown) were r(GGG UGA GUC UGU AAA GUA U)dTdT (SEQ ID NO: 8) for the sense strand and r(AUA CUU UAC AGA CUC ACC C)dAdG (SEQ ID NO: 9) for the antisense strand. The control siRNA oligonucleotides were supplied by Qiagen.” left out

MEF cells [8] = assay: Wound healing assay, siRNA-treated MEF cells; type: cell-based, mouse; settings: PDGF stimulation (FIG. 3E)
Procedure: Wound Healing Assay: Wild type and Gα12^−/−Gα13^−/− MEF cells isolated from E8.0 Gα12^−/−Gα13^−/− embryos (Gu et al., Proc Natl Acad Sci USA 99: 9352-9357 (2002)) in Dulbecco's Modified Eagle Medium (DMEM) (Invitrogen) containing 10% FBS were seeded into wells of 24-multiwell plates (Becton-Dickinson) (Shan et al., Proc Natl Acad Sci USA 102: 3772-3776 (2005); Yang and Huang, J Biol Chem 280: 27130-27137 (2005)). After they grew to confluency, wounds were made with sterile pipet tips. Cells were washed with Phosphate Buffered Saline (PBS) and refreshed with medium containing 10% fetal bovine serum (FBS) or 20 ng/mL platelet-derived growth factor (PDGF-BB). After overnight incubation at 37° C., cells were fixed and photographed. MEF cells were transfected with Lipofectamine-2000 (transfection efficiency was 10 to 30%) (Invitrogen).
as §3

mouse Gα13 [9] = assay: Western blot of Gα13 protein level in MEF cells after RNA interference; type: cell-based; settings: wild-type MEF cells, siRNA transfection, Western blot (FIG. 3C)
Procedure: as §1

Substance: r(GUA CGA CUU UGA AAU UAA A)dTdT (sense GUACGACUUUGAAAUUAAATT; antisense UUUAAUUUCAAAGUCGUACTC; siRNA; sugars from the 5' end r19 d2, backbone not given here) [Gα13 siRNA, siRNA duplex against mouse Gα13]
- protein level of tubulin (tubulin [1]): not changed
- protein level of Gα12 (Gα12 [2]): no effect
- cell migratory response to PDGF stimulation, chamber assay (MEF cells [3]; PDGF stimulation (FIG. 3D)): defective cell migratory response
- migration of cells without PDGF, compared with control RNAi (MEF cells [3]; without PDGF (or other stimuli), data not shown): not significantly different
- protein level of Gα12 (Gα12 [4]): not changed
- protein level of tubulin (tubulin [5]): no effect
- endogenous mouse Gα13 protein level (mouse Gα13 [6]): reduced
- VEGF-induced endothelial cell migration [7]: reduced
- cell migratory response to PDGF stimulation, wound-healing assay (MEF cells [8]): defective cell migratory response; also recorded: reduced
- level of endogenous mouse Gα13 protein (mouse Gα13 [9]): significantly reduced
